# Tested on: 843126-344-R-J1-PDC complex spheroid viability
# Test: Anticancer human tumor 843126-344-R-J1-PDC patient-derived melanoma cell line growth inhibition [POLQ]
# Details: for IC50: curve of first compound; for viability, T/C: stronger effect = lower value
# How it was run: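 Patient-derived tumour cells were co-cultured with HUVEC and mesenchymal stem cells as multicellular spheroids at 37 °C. They were treated with POLQ inhibitors (novobiocin, ART-558, RP6685) alone or combined with other agents. Top concentrations were at or near clinical Cmax (otherwise 10 microM; SN-38 at 1 microM), decreasing in half-log steps.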
# [1] = second compound 0.0316 µM, first compound 0.0316 µM
# [2] = second compound 0.0316 µM, first compound 0.1 µM
# [3] = second compound 0.0316 µM, first compound 0.316 µM
# [4] = second compound 0.0316 µM, first compound 1 µM
# [5] = second compound 0.0316 µM, first compound 3.16 µM
# [6] = second compound 0.0316 µM, first compound 10 µM
# [7] = second compound 0.1 µM, first compound 0.0316 µM
# [8] = second compound 0.1 µM, first compound 0.1 µM
# [9] = second compound 0.1 µM, first compound 0.316 µM
# [10] = second compound 0.1 µM, first compound 1 µM
# [11] = second compound 0.1 µM, first compound 3.16 µM
# [12] = second compound 0.1 µM, first compound 10 µM
# [13] = second compound 0.316 µM, first compound 0.0316 µM
# [14] = second compound 0.316 µM, first compound 0.1 µM
# [15] = second compound 0.316 µM, first compound 0.316 µM
# [16] = second compound 0.316 µM, first compound 1 µM
# [17] = second compound 0.316 µM, first compound 3.16 µM
# [18] = second compound 0.316 µM, first compound 10 µM
# [19] = second compound 1 µM, first compound 0.0316 µM
# [20] = second compound 1 µM, first compound 0.1 µM
# [21] = second compound 1 µM, first compound 0.316 µM
# [22] = second compound 1 µM, first compound 1 µM
# [23] = second compound 1 µM, first compound 3.16 µM
# [24] = second compound 1 µM, first compound 10 µM
# [25] = second compound 3.16 µM, first compound 0.0316 µM
# [26] = second compound 3.16 µM, first compound 0.1 µM
# [27] = second compound 3.16 µM, first compound 0.316 µM
# [28] = second compound 3.16 µM, first compound 1 µM
# [29] = second compound 3.16 µM, first compound 3.16 µM
# [30] = second compound 3.16 µM, first compound 10 µM
# [31] = second compound 10 µM, first compound 0.0316 µM
# [32] = second compound 10 µM, first compound 0.1 µM
# [33] = second compound 10 µM, first compound 0.316 µM
# [34] = second compound 10 µM, first compound 1 µM
# [35] = second compound 10 µM, first compound 3.16 µM
# [36] = second compound 10 µM, first compound 10 µM
# 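Throughout, for viability, T/C: spheroids exposed to drugs for seven days before readout.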
smiles,measurement,setting,value
COc1cccc2c1C(=O)c1c(O)c3c(c(O)c1C2=O)CC(O)(C(=O)CO)CC3OC1CC(N)C(O)C(C)O1 (centres undefined) + Nc1ccc(C#CCN(C(=O)Cc2ncc(C(F)(F)F)cc2C(F)(F)F)c2ccc(F)cc2)nn1,IC50,second compound 0.0316 µM,393 nM
same,IC50,second compound 0.1 µM,412 nM
same,IC50,second compound 0.316 µM,293 nM
same,IC50,second compound 1 µM,348 nM
same,IC50,second compound 3.16 µM,290 nM
same,IC50,second compound 10 µM,288 nM
same,"viability, T/C",[1],84.7%
same,"viability, T/C",[2],84.8%
same,"viability, T/C",[3],57.3%
same,"viability, T/C",[4],16.1%
same,"viability, T/C",[5],3.95%
same,"viability, T/C",[6],2.82%
same,"viability, T/C",[7],94.7%
same,"viability, T/C",[8],84.4%
same,"viability, T/C",[9],61.3%
same,"viability, T/C",[10],15.7%
same,"viability, T/C",[11],3.48%
same,"viability, T/C",[12],2.63%
same,"viability, T/C",[13],77.9%
same,"viability, T/C",[14],94.6%
same,"viability, T/C",[15],47.5%
same,"viability, T/C",[16],12.2%
same,"viability, T/C",[17],2.99%
same,"viability, T/C",[18],2.71%
same,"viability, T/C",[19],78.5%
same,"viability, T/C",[20],79%
same,"viability, T/C",[21],52.6%
same,"viability, T/C",[22],14.2%
same,"viability, T/C",[23],3.21%
same,"viability, T/C",[24],2.34%
same,"viability, T/C",[25],82.4%
same,"viability, T/C",[26],76.3%
same,"viability, T/C",[27],47.8%
same,"viability, T/C",[28],13.9%
same,"viability, T/C",[29],3.21%
same,"viability, T/C",[30],2.76%
same,"viability, T/C",[31],80.6%
same,"viability, T/C",[32],73.4%
same,"viability, T/C",[33],48.5%
same,"viability, T/C",[34],10.4%
same,"viability, T/C",[35],2.78%
same,"viability, T/C",[36],2.29%
C#Cc1c(F)ccc2cc(O)cc(-c3ncc4c(N5CC6CCC(C5)N6)nc(OCC56CCCN5CC(F)C6)nc4c3F)c12 (centres undefined) + COC1C(OC(N)=O)C(O)C(Oc2ccc3c(O)c(NC(=O)c4ccc(O)c(CC=C(C)C)c4)c(=O)oc3c2C)OC1(C)C,IC50,second compound 0.0316 µM,> 10000 nM
same,IC50,second compound 0.1 µM,> 10000 nM
same,IC50,second compound 0.316 µM,> 10000 nM
same,IC50,second compound 1 µM,> 10000 nM
same,IC50,second compound 3.16 µM,> 10000 nM
same,IC50,second compound 10 µM,> 10000 nM
same,"viability, T/C",[1],101%
same,"viability, T/C",[2],116%
same,"viability, T/C",[3],76.9%
same,"viability, T/C",[4],95.8%
same,"viability, T/C",[5],82.4%
same,"viability, T/C",[6],76%
same,"viability, T/C",[7],82%
same,"viability, T/C",[8],106%
same,"viability, T/C",[9],86.2%
same,"viability, T/C",[10],81.4%
same,"viability, T/C",[11],91.7%
same,"viability, T/C",[12],85.4%
same,"viability, T/C",[13],79.3%
same,"viability, T/C",[14],96.5%
same,"viability, T/C",[15],73.9%
same,"viability, T/C",[16],107%
same,"viability, T/C",[17],109%
same,"viability, T/C",[18],74.2%
same,"viability, T/C",[19],87.9%
same,"viability, T/C",[20],98.7%
same,"viability, T/C",[21],89.3%
same,"viability, T/C",[22],111%
same,"viability, T/C",[23],98.1%
same,"viability, T/C",[24],91.3%
same,"viability, T/C",[25],83.7%
same,"viability, T/C",[26],105%
same,"viability, T/C",[27],91.4%
same,"viability, T/C",[28],107%
same,"viability, T/C",[29],86.6%
same,"viability, T/C",[30],84%
same,"viability, T/C",[31],88.2%
same,"viability, T/C",[32],84.8%
same,"viability, T/C",[33],98.5%
same,"viability, T/C",[34],100%
same,"viability, T/C",[35],93.2%
same,"viability, T/C",[36],71.1%

# Reference: PubChem BioAssay AID1963837 (Molecular Pharmacology Branch, DTP, NCI, 2024)
